# Experimental data from patent publication US8476197B2, “Aminopropenoates as fungicides” (priority 2009, dated 2013).
# Marks after values point to notes of the source that are not given here.
# Settings: pH 2.3
row,Log P,Compound
1,1.14,COC(=O)C(C#N)=C(NCC(N)=O)c1cccnc1Cl [Compound 569]
2,0.97,COC(=O)C(C#N)=C(NC(CO)C(N)=O)c1cccnc1Cl (stereo not shown) [Compound 570]

# Same assay, conditions: pH 2.7
row,Compound,Log P
1,CCOC(=O)C(C#N)=C(NC1(c2c(F)cccc2F)CC1)c1cn(C)cc1C(F)(F)F [Compound 547],3.85^[a]
2,CCOC(=O)C(C#N)=C(Nc1ccccc1SC)c1cn(C)cc1C(F)(F)F [Compound 548],3.73^[a]
3,CCOC(=O)C(C#N)=C(NC(C)(C)c1ccccc1)c1cn(C)nc1C(F)F [Compound 551],3.33^[a]
4,CCOC(=O)C(C#N)=C(NCc1ccc(Cl)cc1)c1cn(C)nc1C(F)F [Compound 555],3.31^[a]
5,CCOC(=O)C(C#N)=C(NC1(c2c(F)cccc2F)CC1)c1cn(C)nc1C(F)F [Compound 559],3.17^[a]
6,CCOC(=O)C(C#N)=C(NC1(COc2ccccc2)CC1)c1cccnc1Cl [Compound 560],3.6^[a]
7,CCOC(=O)C(C#N)=C(NC1(COc2ccccc2)CC1)c1cn(C)nc1C(F)F [Compound 561],3.37^[a]
8,CCOC(=O)C(C#N)=C(NC(C)CN(C)C)c1ccsc1Br (stereo not shown) [Compound 613],1.44^[a]
9,CCOC(=O)C(C#N)=C(NC1(C(=O)OC(C)CC)CC1)c1cc(C)oc1C (stereo not shown) [Compound 618],3.94^[a]
10,CCOC(=O)C(C#N)=C(NC(C)(C)CSC)c1cc(C)oc1C [Compound 619],3.58^[a]
11,COC(=O)CC(C)NC(=C(C#N)C(=O)OC)c1cccnc1Cl (stereo not shown) [Compound 620],2.11^[a]
12,CCC(C)OC(=O)C1(NC(=C(C#N)C(=O)OC)c2cccnc2Cl)CC1 (stereo not shown) [Compound 621],2.23^[a]
13,CCN(CC)CC(C)NC(=C(C#N)C(=O)OC)c1cccnc1Cl (stereo not shown) [Compound 622],0.86^[a]
14,CCOC(=O)C1(NC(=C(C#N)C(=O)OC)c2cccnc2Cl)CC1 [Compound 623],1.66^[a]
15,CCOCC(C)NC(=C(C#N)C(=O)OC)c1cccnc1Cl (stereo not shown) [Compound 624],2.42^[a]
16,CCOCC(CC)NC(=C(C#N)C(=O)OC)c1cccnc1Cl (stereo not shown) [Compound 625],2.76^[a]
17,CCCC(COCC)NC(=C(C#N)C(=O)OC)c1cccnc1Cl (stereo not shown) [Compound 626],3.15^[a]
18,CCOCC(NC(=C(C#N)C(=O)OC)c1cccnc1Cl)C(C)C (stereo not shown) [Compound 627],3.11^[a]

# Next, values leading:
row,Log P,Compound
1,0.76^[a],CCOC(=O)C(C#N)=C(NC(C)CN(C)C)c1conc1C (stereo not shown) [Compound 594]
2,1.41^[a],CCOC(=O)C(C#N)=C(NC(C)C(N)=O)c1conc1C (stereo not shown) [Compound 596]
3,1.3^[a],COC(=O)C(C#N)=C(NC(C)C(N)=O)c1cn(C)nc1C(F)F (stereo not shown) [Compound 598]
4,1.66^[a],CCOC(=O)C(C#N)=C(NC(C)C(=O)NC)c1cn(C)nc1C(F)F (stereo not shown) [Compound 599]
5,1.38^[a],CNC(=O)C(C)NC(=C(C#N)C(=O)OC)c1cn(C)nc1C(F)F (stereo not shown) [Compound 601]
6,1.36^[a],CCOC(=O)C(C#N)=C(NC(C)CN(C)C)c1cn(C)nc1C(F)(F)F (stereo not shown) [Compound 602]
7,0.96^[a],CCOC(=O)C(C#N)=C(NCC(C)N)c1c(C)nn(C)c1Cl (stereo not shown) [Compound 603]
8,1.13^[a],CCOC(=O)C(C#N)=C(NC(C)CN(C)C)c1c(C)nn(C)c1Cl (stereo not shown) [Compound 605]
9,1.7^[a],CCOC(=O)C(C#N)=C(NC(C)C(=O)NC)c1c(C)nn(C)c1Cl (stereo not shown) [Compound 606]
10,1.58^[a],CCOC(=O)C(C#N)=C(NC(C)C(N)=O)c1c(C)nn(C)c1Cl (stereo not shown) [Compound 607]
11,1.63^[a],CCOC(=O)C(C#N)=C(NC(C)CN(C)C)c1sccc1C(F)(F)F (stereo not shown) [Compound 608]
12,1.42^[a],CCOC(=O)C(C#N)=C(NCC(C)N)c1sccc1C(F)(F)F (stereo not shown) [Compound 609]
13,2.07^[a],CCOC(=O)C(C#N)=C(NC(C)C(N)=O)c1sccc1C(F)(F)F (stereo not shown) [Compound 610]
14,1.9^[a],CCOC(=O)C(C#N)=C(NC(C)C(N)=O)c1sccc1Br (stereo not shown) [Compound 611]
15,2.07^[a],CCOC(=O)C(C#N)=C(NC(C)C(=O)NC)c1sccc1Br (stereo not shown) [Compound 612]
16,3.42^[a],CCOCC(C)NC(=C(C#N)C(=O)OCC)c1cc(C)oc1C (stereo not shown) [Compound 617]

row,Log P,Compound
1,1.9^[a],CCOC(=O)C(C#N)=C(NC(C)C(N)=O)c1ccsc1Br (stereo not shown) [Compound 628]
2,1.57^[a],CCOC(=O)C(C#N)=C(NC(C)C(=O)NC)c1conc1C (stereo not shown) [Compound 629]
3,1.17^[a],COC(=O)C(C#N)=C(NC(C)CN(C)C)c1sc(C)nc1C(F)(F)F (stereo not shown) [Compound 630]
4,0.94^[a],COC(=O)/C(C#N)=C(\NCC(C)N)c1sc(C)nc1C(F)(F)F (stereo not shown) [Compound 631]
5,1.11^[a],CCOC(=O)C(C#N)=C(NC(C)CN)c1cn(C)nc1C(F)(F)F (stereo not shown) [Compound 632]
6,1.69^[a],COC(=O)C(C#N)=C(NC(C)C(N)=O)c1sc(C)nc1C(F)(F)F (stereo not shown) [Compound 634]
7,1.78^[a],CCOC(=O)C(C#N)=C(NC(C)C(N)=O)c1cn(C)nc1C(F)(F)F (stereo not shown) [Compound 635]
8,1.95^[a],CCOC(=O)C(C#N)=C(NC(C)C(=O)NC)c1cn(C)nc1C(F)(F)F (stereo not shown) [Compound 636]
9,2.05^[a],CCOC(=O)C(C#N)=C(NC(C)C(=O)NC)c1ccsc1Br (stereo not shown) [Compound 637]
10,1.93^[a],CNC(=O)C(C)NC(=C(C#N)C(=O)OC)c1sc(C)nc1C(F)(F)F (stereo not shown) [Compound 638]
11,2.25^[a],CCOC(=O)C(C#N)=C(NC(C)C(=O)NC)c1sccc1C(F)(F)F (stereo not shown) [Compound 639]
12,1.35^[a],CCOC(=O)C(C#N)=C(NC(C)CN(C)C)c1sc(C)nc1C(F)(F)F (stereo not shown) [Compound 640]
13,1.96^[a],CCOC(=O)C(C#N)=C(NC(C)C(N)=O)c1sc(C)nc1C(F)(F)F (stereo not shown) [Compound 641]
14,2.07^[a],CCOC(=O)C(C#N)=C(NC(C)C(=O)NC)c1sc(C)nc1C(F)(F)F (stereo not shown) [Compound 642]
15,1.11^[a],CCOC(=O)/C(C#N)=C(\NCC(C)N)c1sc(C)nc1C(F)(F)F (stereo not shown) [Compound 643]
16,1.9^[a],CCOC(=O)C(C#N)=C(NC(C)C(N)=O)c1sccc1Cl (stereo not shown) [Compound 644]

# Same assay, conditions: pH 7.5
row,Log P,Compound
1,1.18,COC(=O)C(C#N)=C(NC(C)C(N)=O)c1cccnc1Cl (stereo not shown) [Compound 563]
2,0.94,COC(=O)C(C#N)=C(NCC(N)=O)c1cccnc1Cl [Compound 569]
3,0.79,COC(=O)C(C#N)=C(NC(CO)C(N)=O)c1cccnc1Cl (stereo not shown) [Compound 570]
4,1.58,COC(=O)C(C#N)=C(NC(C(N)=O)C(C)C)c1cccnc1Cl (stereo not shown) [Compound 572]
5,2.38,COC(=O)C(C#N)=C(NC(C)CSC)c1cccnc1Cl (stereo not shown) [Compound 575]
6,2.72,CCSCC(C)NC(=C(C#N)C(=O)OC)c1cccnc1Cl (stereo not shown) [Compound 577]
7,2.56,COC(=O)C(C#N)=C(NC(C(=O)OC)C(C)C)c1cccnc1Cl (stereo not shown) [Compound 580]
8,3.14,COC(=O)C(NC(=C(C#N)C(=O)OCC(F)(F)F)c1cccnc1Cl)C(C)C (stereo not shown) [Compound 581]
9,2.27,CCOC(=O)C(C#N)=C(NC(CC)C(=O)OC)c1cccnc1Cl (stereo not shown) [Compound 582]
10,2.98,CSCC(C)NC(=C(C#N)C(=O)OCC(F)(F)F)c1cccnc1Cl (stereo not shown) [Compound 585]

row,Compound,Log P
1,CCOC(=O)C(C#N)=C(NC(C)CSCC)c1cccnc1Cl (stereo not shown) [Compound 586],3.06
2,CCOC(=O)C(C#N)=C(NC(C)CSC)c1cccnc1Cl (stereo not shown) [Compound 593],2.71
